System: 361931-004-R-J1-PDC multicell spheroid viability
Test: Anticancer human tumor 361931-004-R-J1-PDC patient-derived colon adenocarcinoma cell line growth inhibition [PI3K]
Settings: for IC50: curve of first compound; for viability, T/C: stronger effect = lower value
Excerpt: Combinatorial screen of targeted agents with the PI3K inhibitors inavolisib, alpelisib, duvelisib, and copanlisib in multi-cell type tumor spheroids
A high-throughput screen of multi-cell type tumor spheroids was designed to identify active combinations of targeted small molecules and PI3K pathway inhibitors. Complex spheroids include a stromal component modeled by human endothelial cells (HUVEC) and fibroblasts modeled by human mesenchymal stem cells (MSCs). The concentration ranges selected for each drug and investigational agent were based upon clinically achievable concentrations if the clinical Cmax of the agent was known.
Compounds. The drugs and investigational agents: inavolisib (NSC800729), alpelisib (NSC765974), duvelisib (NSC772469), copanlisib (NSC816437), ipatasertib (NSC767898), afuresertib (NSC778305), talazoparib (NSC767125), sapanisertib (NSC764658), selumetinib (NSC741078), tovorafenib (DAY101, NSC766906), vemurafenib (NSC761431), ravoxertinib (NSC781343), sotorasib (NSC818433), MRTX1133 (NSC 836407), abemaciclib (NSC 768073), palbociclib (NSC758247), venetoclax (NSC 766270), SY5609 (NSC837396), enzalutamide (NSC755605), and darolutamide (NSC825331), were obtained from the National Cancer Institute (NCI) Developmental Therapeutics Program Chemical Repository. The FDA-approved anticancer drug set is available from the NCI Developmental Therapeutics Program. […] The stock solutions were prepared in dimethyl sulfoxide (DMSO, Sigma-Aldrich, St. Louis, MO, cat. D2650) at 800-fold the tested concentration and stored at -70 degrees C prior to their use. All drugs and investigational agents were tested over a range starting from a high concentration at or near the clinical Cmax and decreasing in half-log increments. If the clinical Cmax for an agent had not been determined, the highest concentration tested was 10 microM.
Cell Culture. All cells were maintained in an incubator at 37 degrees C and 5% CO2 with 95% humidity. The PDC lines were cultured according to standard operating procedures established by the NCI PDMR (https://pdmr.cancer.gov/sops/default.htm). All PDCs were thawed and cultured in Matrigel-coated flasks prepared with a working solution of 1X Ham's F-12 nutrient mix, without supplementation (Invitrogen, Waltham, MA, cat. 11765054), 100 U/mL penicillin-streptomycin (Invitrogen, cat. 15140122), and 2.5% Matrigel (Corning Inc., Corning, NY, cat. 354248) for the first three passages. The 354836-022-R-J1-PDC, 475296-252-R-J1-PDC, and 997726-040-R-J2-PDC lines were cultured in 6A media, which includes advanced DMEM/F-12 (Thermo Fisher Scientific, cat. 12634028), 10 mM HEPES (Thermo Fisher Scientific, cat. 15630080), 1X GlutaMAX supplement (Thermo Fisher Scientific, cat. 35050061), 0.1 mg/mL primocin (InvivoGen, San Diego, CA, cat. ant-pm-2), 10% defined fetal bovine serum, heat inactivated (HyClone Laboratories Inc., Logan, UT, cat. SH30070.03HI), 50% L-WRN conditioned media (ATCC, cat. CRL-3276), 1.25 mM N-Acetyl-L-cysteine (Sigma-Aldrich, cat. A9165), 10 mM nicotinamide (Sigma-Aldrich, cat. N0636), 1X B-27 supplement (Thermo Fisher Scientific, cat. 17504044), 1X N-2 supplement (Thermo Fisher Scientific, cat. 17502048), and 10 microM Y-27632 dihydrochloride (Tocris Bioscience, Bristol, United Kingdom, cat. 1254). The 624824-186-R-J2-PDC line was cultured in 6C/Colon 1B media, which includes all 6A media components plus 50 ng/mL human EGF recombinant protein (Thermo Fisher Scientific, cat. PHG0311). […]

[1] = second compound 0.00316 µM, first compound 0.0316 µM
[2] = second compound 0.00316 µM, first compound 0.1 µM
[3] = second compound 0.00316 µM, first compound 0.316 µM
[4] = second compound 0.00316 µM, first compound 1 µM
[5] = second compound 0.00316 µM, first compound 3.16 µM
[6] = second compound 0.00316 µM, first compound 10 µM
[7] = second compound 0.01 µM, first compound 0.0316 µM
[8] = second compound 0.01 µM, first compound 0.1 µM
[9] = second compound 0.01 µM, first compound 0.316 µM
[10] = second compound 0.01 µM, first compound 1 µM
[11] = second compound 0.01 µM, first compound 3.16 µM
[12] = second compound 0.01 µM, first compound 10 µM
[13] = second compound 0.0316 µM, first compound 0.0316 µM
[14] = second compound 0.0316 µM, first compound 0.1 µM
[15] = second compound 0.0316 µM, first compound 0.316 µM
[16] = second compound 0.0316 µM, first compound 1 µM
[17] = second compound 0.0316 µM, first compound 3.16 µM
[18] = second compound 0.0316 µM, first compound 10 µM
[19] = second compound 0.1 µM, first compound 0.0316 µM
[20] = second compound 0.1 µM, first compound 0.1 µM
[21] = second compound 0.1 µM, first compound 0.316 µM
[22] = second compound 0.1 µM, first compound 1 µM
[23] = second compound 0.1 µM, first compound 3.16 µM
[24] = second compound 0.1 µM, first compound 10 µM
[25] = second compound 0.316 µM, first compound 0.0316 µM
[26] = second compound 0.316 µM, first compound 0.1 µM
[27] = second compound 0.316 µM, first compound 0.316 µM
[28] = second compound 0.316 µM, first compound 1 µM
[29] = second compound 0.316 µM, first compound 3.16 µM
[30] = second compound 0.316 µM, first compound 10 µM
[31] = second compound 1 µM, first compound 0.0316 µM
[32] = second compound 1 µM, first compound 0.1 µM
[33] = second compound 1 µM, first compound 0.316 µM
[34] = second compound 1 µM, first compound 1 µM
[35] = second compound 1 µM, first compound 3.16 µM
[36] = second compound 1 µM, first compound 10 µM
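Further: spheroids exposed to agents for seven days before readout.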

In the case of `CC1(C)CCC(CN2CCN(c3ccc(C(=O)NS(=O)(=O)c4ccc(NCC5CCOCC5)c([N+](=O)[O-])c4)c(Oc4cnc5[nH]ccc5c4)c3)CC2)=C(c2ccc(Cl)cc2)C1` + CC(Nc1ccc2c(c1)OCCn1cc(N3C(=O)OCC3C(F)F)nc1-2)C(N)=O, the IC50 (second compound 0.00316 µM) is reported as 4.2 µM, the IC50 (second compound 0.01 µM) is reported as 4.29 µM and the IC50 (second compound 0.0316 µM) is reported as 4.05 µM. For the same molecule, the IC50 (second compound 0.1 µM) was 3.93 µM, the IC50 (second compound 0.316 µM) was 3.36 µM and the IC50 (second compound 1 µM) was 3.32 µM. It also gave a viability, T/C [1] of 104%, a viability, T/C [2] of 98.4% and a viability, T/C [3] of 112%. It also gave a viability, T/C [4] of 101%, a viability, T/C [5] of 65.6% and a viability, T/C [6] of 2.39%. It also gave a viability, T/C [7] of 93.3%, a viability, T/C [8] of 99.7% and a viability, T/C [9] of 91.5%. It also gave a viability, T/C [10] of 103%, a viability, T/C [11] of 67% and a viability, T/C [12] of 2.81%. The viability, T/C [13] was 99.1%, the viability, T/C [14] was 109% and the viability, T/C [15] was 92.1%. For the same molecule, the viability, T/C [16] was 101%, the viability, T/C [17] was 63% and the viability, T/C [18] was 2.11%. It also gave a viability, T/C [19] of 99%, a viability, T/C [20] of 99.8% and a viability, T/C [21] of 95.9%. For the same molecule, the viability, T/C [22] was 85.3%, the viability, T/C [23] was 61.9% and the viability, T/C [24] was 1.48%. It also gave a viability, T/C [25] of 86.7%, a viability, T/C [26] of 84.7% and a viability, T/C [27] of 87.8%. For the same molecule, the viability, T/C [28] was 84.3%, the viability, T/C [29] was 52.7% and the viability, T/C [30] was 1.87%. The viability, T/C [31] was 78%, the viability, T/C [32] was 80.7% and the viability, T/C [33] was 75.8%. For the same molecule, the viability, T/C [34] was 71.2%, the viability, T/C [35] was 52.4% and the viability, T/C [36] was 1.28%.
Molecule `C[C@@H](NC(=O)c1ncnc(N)c1Cl)c1ncc(C(=O)Nc2cc(C(F)(F)F)c(Cl)cn2)s1` + CC(Nc1ccc2c(c1)OCCn1cc(N3C(=O)OCC3C(F)F)nc1-2)C(N)=O has an IC50 (second compound 0.00316 µM) of over 10 µM, an IC50 (second compound 0.01 µM) of over 10 µM and an IC50 (second compound 0.0316 µM) of over 10 µM. The IC50 (second compound 0.1 µM) was over 10 µM, the IC50 (second compound 0.316 µM) was over 10 µM and the IC50 (second compound 1 µM) was 5.85 µM. The viability, T/C [1] was 110%, the viability, T/C [2] was 102% and the viability, T/C [3] was 105%. For the same molecule, the viability, T/C [4] was 91.2%, the viability, T/C [5] was 96.8% and the viability, T/C [6] was 84.6%. It also gave a viability, T/C [7] of 110%, a viability, T/C [8] of 109% and a viability, T/C [9] of 98%. For the same molecule, the viability, T/C [10] was 89.6%, the viability, T/C [11] was 95% and the viability, T/C [12] was 75.4%. For the same molecule, the viability, T/C [13] was 101%, the viability, T/C [14] was 105% and the viability, T/C [15] was 92.2%. The viability, T/C [16] was 99%, the viability, T/C [17] was 82.4% and the viability, T/C [18] was 73.1%. The viability, T/C [19] was 97.6%, the viability, T/C [20] was 97.1% and the viability, T/C [21] was 92.1%. It also gave a viability, T/C [22] of 88.7%, a viability, T/C [23] of 89.1% and a viability, T/C [24] of 59.9%. The viability, T/C [25] was 97.9%, the viability, T/C [26] was 86.8% and the viability, T/C [27] was 75.9%. The viability, T/C [28] was 78.2%, the viability, T/C [29] was 70.5% and the viability, T/C [30] was 47.2%. It also gave a viability, T/C [31] of 77.9%, a viability, T/C [32] of 80.2% and a viability, T/C [33] of 73.5%. It also gave a viability, T/C [34] of 66%, a viability, T/C [35] of 61.4% and a viability, T/C [36] of 41.5%.
For `Cn1ncnc1[C@H]1c2n[nH]c(=O)c3cc(F)cc(c23)N[C@@H]1c1ccc(F)cc1` + CC(Nc1ccc2c(c1)OCCn1cc(N3C(=O)OCC3C(F)F)nc1-2)C(N)=O, the IC50 (second compound 0.00316 µM) was over 0.1 µM, the IC50 (second compound 0.01 µM) was over 0.1 µM and the IC50 (second compound 0.0316 µM) was over 0.1 µM. For the same molecule, the IC50 (second compound 0.1 µM) was over 0.1 µM, the IC50 (second compound 0.316 µM) was over 0.1 µM and the IC50 (second compound 1 µM) was over 0.1 µM. The viability, T/C (second compound 0.00316 µM, first compound 0.000316 µM) was 95.9%, the viability, T/C (second compound 0.00316 µM, first compound 0.001 µM) was 96.1% and the viability, T/C (second compound 0.00316 µM, first compound 0.00316 µM) was 89.4%. It also gave a viability, T/C (second compound 0.00316 µM, first compound 0.01 µM) of 88.8%, a viability, T/C [1] of 95.6% and a viability, T/C [2] of 81.9%. It also gave a viability, T/C (second compound 0.01 µM, first compound 0.000316 µM) of 99.7%, a viability, T/C (second compound 0.01 µM, first compound 0.001 µM) of 98.7% and a viability, T/C (second compound 0.01 µM, first compound 0.00316 µM) of 94.6%. For the same molecule, the viability, T/C (second compound 0.01 µM, first compound 0.01 µM) was 94.2%, the viability, T/C [7] was 89.8% and the viability, T/C [8] was 91.1%. The viability, T/C (second compound 0.0316 µM, first compound 0.000316 µM) was 97.8%, the viability, T/C (second compound 0.0316 µM, first compound 0.001 µM) was 100% and the viability, T/C (second compound 0.0316 µM, first compound 0.00316 µM) was 95.4%. It also gave a viability, T/C (second compound 0.0316 µM, first compound 0.01 µM) of 94.3%, a viability, T/C [13] of 98% and a viability, T/C [14] of 93.6%. It also gave a viability, T/C (second compound 0.1 µM, first compound 0.000316 µM) of 101%, a viability, T/C (second compound 0.1 µM, first compound 0.001 µM) of 77.5% and a viability, T/C (second compound 0.1 µM, first compound 0.00316 µM) of 93.7%. The viability, T/C (second compound 0.1 µM, first compound 0.01 µM) was 86.2%, the viability, T/C [19] was 82% and the viability, T/C [20] was 67.1%. The viability, T/C (second compound 0.316 µM, first compound 0.000316 µM) was 89.3%, the viability, T/C (second compound 0.316 µM, first compound 0.001 µM) was 94.8% and the viability, T/C (second compound 0.316 µM, first compound 0.00316 µM) was 86.2%. It also gave a viability, T/C (second compound 0.316 µM, first compound 0.01 µM) of 85.4%, a viability, T/C [25] of 77.5% and a viability, T/C [26] of 76.2%. The viability, T/C (second compound 1 µM, first compound 0.000316 µM) was 85.9%, the viability, T/C (second compound 1 µM, first compound 0.001 µM) was 77.4% and the viability, T/C (second compound 1 µM, first compound 0.00316 µM) was 88.2%. For the same molecule, the viability, T/C (second compound 1 µM, first compound 0.01 µM) was 69.7%, the viability, T/C [31] was 70.6% and the viability, T/C [32] was 64.4%.
